Test results reported in patent US20110218244A1, “CREATINE ß-ALANINATE: A NOVEL SALT FOR INCREASING […] PERFORMANCE” (priority 2009, published 2011).
Like-named read-outs stand apart in the source and are kept apart here.

How the values were obtained:
individuals = conditions: cited from earlier work
[1] = tested on: intramuscular carnosine content; conditions: after 10 week supplementation; cited from earlier work

**Q.** Which paraesthesia symptoms (individuals; in vivo) does the source give for anserine here?
**A.** Its paraesthesia symptoms is “do not cause the same symptoms”.

**Q.** Which “more β-alanine administrable before eliciting symptoms of paraesthesia, compared with β-alanine alone” value (human subjects; administered as creatine β-alaninate) does the source give for creatine β-alaninate here?
**A.** The value was “roughly 100%”.

**Q.** And the “single dose administered before the onset of parasthesia was noted” value (human subjects; oral, gelatin capsules, human subjects)?
**A.** The value was “up to 55.00 mg/kg”.

**Q.** And the “equivalent β-alanine dose before the onset of parasthesia” value (human subjects; salt mass consists of about 40.45% β-alanine)?
**A.** The value was “about 22.25 mg/kg”.

**Q.** For `NCCC(=O)N[C@@H](Cc1cnc[nH]1)C(=O)O` [carnosine, β-alanyl-L-histidine], which paraesthesia symptoms (individuals; greater quantities, ingested as dipeptides in meat) is on record?
**A.** Its paraesthesia symptoms is “do not cause the same symptoms”.

**Q.** What does the source list for `NCCC(=O)O` [β-alanine, 3-Aminopropanoic acid]?
**A.** increase in intramuscular carnosine content, average [1]: 80%; amount above which ingestion causes paraesthesia (individuals; in solution or as powder in gelatin capsules): above 10 mg per kg body weight; time at which paraesthesia begins after oral administration (individuals; oral): about 20 minutes
